Data as given in EP0605261B1, “Use of a flavone derivative as taste modifier and a method of modifying taste” (SAN-EI GEN F.F.I., INC., priority 1992, dated 1994).

What was measured:
Assay type in all cases: in vivo
[1] = Sensory test (limiting method): enhancing the sourness of acid sugar solution; parameters: key: (equivalent citric acid content / citric acid content with flavone) × 100; conditions: citric acid 1.000 (g), flavone derivative (I) 0.00001 (g), 8 panellers; for Value of enhancing the sourness Ascending system: ascending system (from low concentration); for Value of enhancing the sourness Descending system: descending system (from high concentration)
Description: Compounds 1 to 11 of the flavone derivative (I) were used as a taste modifier to prepare acid sugar solution having compositions as follows:
As a control, 21 types of acid sugar solutions are used. In the control, the flavone derivative (I) is removed from the above composition and the content of citric acid is varied from 1.000 g to 1.500 g by 0.025 g.
Sensory tests were carried out by 8 trained panellers in accordance with a limiting method described in the Hand Book of Sensory evaluation, edited by Research Committee of sensory evaluation, Union of Japanese Scientists and Engineers, p.398 (1973) in use of acid sugar solutions containing respective flavone derivatives (I) and another acid sugar solutions having a various content of citric acid.
As for the content of citric acid, two types sensory tests were conducted, one was an ascending system (testing from solution with low concentration) and another was a descending system (testing from solution with high concentration).
The sensory evaluation was made by a value of enhancing the sourness. The value of enhancing the sourness was calculated by the following formula based on the content of citric acid in acid sugar solutions with varied concentration of citric acid, which has an equivalent stimulation with an acid sugar solution containing the flavone derivative (I) Value of enhancing the sourness = (content of citric acid in acid sugar solution sensed as an equivalent stimulation/content of citric acid in acid sugar solution containing the flavone derivative (I)) x 100 [formula]

[2] = Sensory test: refreshness, its continuity and quality of taste (hard candy); conditions: 0.1 (w/w)% flavor composition D (0.0001 (g) Compound 1) vs C, 8 panellers
Description: Compound 1 of the flavone derivative (I) was used as a taste modifier. Hard candy containing the above flavor composition C (control) or D (containing the flavone derivative (I)) was prepared.
First, 60 g of sugar, 40 g of thin malt syrup and 20 g of water were mixed and heated up to about 150°C to boil down, and then allowed to cool to about 120 °C while stirring. Next, the above flavor composition C was added thereto such that 0.1 (w/w)% of the flavor composition was contained and it is poured into a box, thereby preparing flavone derivative (I) free hard candy.
Alternatively, the flavor composition D was used in stead of the flavor composition C to prepare flavone derivative (I)-containing hard candy in accordance with the same method.
Sensory tests for obtained hard candy were carried out by 8 panellers comprised of 6 males and 2 females at the age from 20 to 40.

[3] = Sensory test: body and deliciousness (soft candy); conditions: 0.00001 (g) Compound 1, 8 panellers
Description: Compound 1 of the flavone derivative (I) was used as a taste modifier. Gelatin which was swelled in advance with a part of water, followed by heating to dissolve, granulated sugar, thick malt syrup and the remaining water was mixed, followed by boiling down to 130°C. Then, fondant paste, vegetable oils and fats, emulsifier, colorant and the flavone derivative (I) were added thereto, thereby preparing flavone derivative (I)-containing soft candy. Alternatively, flavone derivative (I) free soft candy was prepared as a control by the same method.
Sensory tests for obtained soft candy were conducted by 8 panellers comprised of 6 males and 2 females at the age from 20 to 40.

[4] = Five points evaluation test: saltiness and brackish taste modifying effect (soy sauce with low salt concentration); parameters: key: five-point scale; additive-free standard solution scored 2; conditions: average points of 5 panellers (2: no changes)
Description: Compound 5 of the flavone derivative (I) was used as a taste modifier. To commercially available soy sauce with low salt concentration (salt concentration: 7 w/w%), 1, 0.1 and 0.01 ppm of the flavone derivative (I) was added respectively to prepare sample solutions. Sensory tests were carried out for the respective concentrations of sample solutions and 1/2 diluted solutions thereof. Flavone derivative (I) free solutions were used as standard solutions.
The sensory tests were conducted by 5 trained panellers to examine saltiness modifying effect (so called saltiness adapting effect) and brackish taste modifying effect.
(§1) Each sample solution was evaluated assuming that the standard solution has the point of 2.

[5] = Five points evaluation test: saltiness and savor modifying effect (salted squid); parameters: key: five-point scale; untreated standard scored 2; conditions: average points of 5 panellers (2: no changes)
Description: Compound 5 of the flavone derivative (I) was used as a taste modifier. To commercially available salted squids, 1, 0.1 and 0.01 ppm of the flavone derivative (I) was added respectively to prepare samples. Sensory tests were carried out for the saltiness and the savor of salted squid. Flavone derivative (I) free salted squids were used as standards.
(§2) The sensory tests were conducted by 5 trained panellers to examine saltiness modifying effect (so called saltiness adapting effect) and savor modifying effect.
as §1

[6] = Sensory test: body and deliciousness (bread); conditions: 0.00002 (g) Compound 5, 8 panellers
Description: Compound 5 of the flavone derivative (I) was used as a taste modifier. Strong flour, yeast food, bread yeast and water were mixed and fermented for four hours at 28°C. Dough materials comprising strong flour, sugar, powdered skim milk, shortening and water, and the flavone derivative (I) were added thereto and subjected to dough process, followed by baking for 25 minutes at 220°C, thereby preparing bread. Flavone derivative (I) free bread was prepared in the same manner as a control.
Sensory tests for obtained bread were conducted by 8 panellers comprised of 6 males and 2 females at the age from 20 to 40.

[7] = Five points evaluation test: saltiness and savor modifying effect (ham made of pork loin); conditions: Ham made of pork loint, average points of 5 panellers (2: no changes)
Description: Compound 6 of the flavone derivative (I) were used as a taste modifier. Ham made of pork loin was prepared by a general method, in use of pickle solutions containing the flavone derivative (I) in the amount of 1, 0.1 and 0.01 ppm and flavone derivative (I) free standard pickle solution, respectively. Sensory tests were carried out for modifying effects of the saltiness and the savor.
as §2, §1
The pickle solution containing the above was prepared and cooled for a night. Then, raw meat (native pork) was molded and the pickle solution was injected at a rate of 120% to the molded meat. After injection, the molded meat was tumbled with tumbler (12 R. P. M./60 minutes) and salted for a night. It was packed in a container and subjected to dry at 60°C for 60 minutes, smoke at 70°C for 40 minutes and steam at 78°C (the temperature of the center raised to 70°C) to finish the processing. The processed meat was cooled for a night and evaluated.

[8] = Sensory test: refreshness, its continuity and quality of taste (mouth refreshing agent); conditions: 0.1 (w/w)% flavor composition F (0.00005 (g) Compound 9) vs E, 8 panellers
Description: Compound 9 of the flavone derivative (I) was used as a taste modifier. Mouth refreshing agent comprising the above flavor composition E (control) or F (containing the flavone derivative (I)) was prepared.
First, 30 g of ethanol, 10 g of glycerin, 2 g of polyoxyethylene hardened castor oil, 0.1 g of sodium saccharin, 0.005 g of chlorhexidine and 58 g of water were mixed, and the above flavor composition E was added thereto such that 0.1 (w/w)% of the flavor compositon was contained, thereby preparing flavone derivative (I) free mouth refreshing agent. Alternatively, the flavor composition F was used in stead of the flavor composition E to prepare flavone derivative (I)-containing mouth refreshing agent.
Sensory tests for obtained mouth refreshing agents were carried out by 8 panellers comprised of 6 males and 2 females at the age from 20 to 40.

[9] = 0.01 ppm, Soy sauce 1/2 dilution
[10] = 0.01 ppm, Soy sauce Undiluted solution
[11] = 0.10 ppm, Soy sauce 1/2 dilution
[12] = 0.10 ppm, Soy sauce Undiluted solution
[13] = 1.00 ppm, Soy sauce 1/2 dilution
[14] = 1.00 ppm, Soy sauce Undiluted solution

## COc1ccc(-c2cc(=O)c3c(OC)c(OC)c(OC)cc3o2)cc1OC [Compound 1, 3',4',5,6,7-pentamethoxyflavone]
[1]
  Value of enhancing the sourness Ascending system: 119
  Value of enhancing the sourness Descending system: 121
[2]
  Continuity of the refreshness: Those who sensed D additive is better: 8 number of people
  Continuity of the refreshness: Those who sensed no difference: 0 number of people
  Quality of taste: Those who sensed D additive is better: 6 number of people
  Quality of taste: Those who sensed no difference: 2 number of people
  Refreshness: Those who sensed D additive is better: 7 number of people
  Refreshness: Those who sensed no difference: 1 number of people
[3]
  Body: Those who sensed no difference: 1 number of people
  Body: Those who sensed the flavone derivative (I) additive is better: 7 number of people
  Deliciousness: Those who sensed no difference: 0 number of people
  Deliciousness: Those who sensed the flavone derivative (I) additive is better: 8 number of people
  Quality of taste: Those who sensed no difference: 0 number of people
  Quality of taste: Those who sensed the flavone derivative (I) additive is better: 8 number of people

## COc1cc(OC)c2c(=O)cc(-c3ccc(OC)c(OC)c3)oc2c1 [Compound 5, 3',4',5,7-tetramethoxyflavone]
[1]
  Value of enhancing the sourness Ascending system: 118
  Value of enhancing the sourness Descending system: 121
[4]; [9]
  Brackish Taste Modifying Effect: 3.6
  Saltiness Modifying Effect: 3.8
[4]; [10]
  Brackish Taste Modifying Effect: 3.4
  Saltiness Modifying Effect: 3.6
[4]; [11]
  Brackish Taste Modifying Effect: 4.0
  Saltiness Modifying Effect: 4.0
[4]; [12]
  Brackish Taste Modifying Effect: 3.4
  Saltiness Modifying Effect: 3.6
[4]; [13]
  Brackish Taste Modifying Effect: 4.0
  Saltiness Modifying Effect: 4.4
[4]; [14]
  Brackish Taste Modifying Effect: 4.0
  Saltiness Modifying Effect: 4.0
[5]; 0.01 ppm
  Saltiness and Savor Modifying Effect: Saltiness: 3.0
  Saltiness and Savor Modifying Effect: Savor: 3.6
  Saltiness and Savor Modifying Effect: Total evaluation: 3.4
[5]; 0.10 ppm
  Saltiness and Savor Modifying Effect: Saltiness: 3.4
  Saltiness and Savor Modifying Effect: Savor: 3.8
  Saltiness and Savor Modifying Effect: Total evaluation: 3.6
[5]; 1.00 ppm
  Saltiness and Savor Modifying Effect: Saltiness: 3.8
  Saltiness and Savor Modifying Effect: Savor: 4.0
  Saltiness and Savor Modifying Effect: Total evaluation: 3.8
[6]
  Body: Those who sensed no difference: 1 number of people
  Body: Those who sensed the flavone derivative (I) additive is better: 7 number of people
  Deliciousness: Those who sensed no difference: 2 number of people
  Deliciousness: Those who sensed the flavone derivative (I) additive is better: 6 number of people
  Quality of taste: Those who sensed no difference: 1 number of people
  Quality of taste: Those who sensed the flavone derivative (I) additive is better: 7 number of people

## COc1ccc(-c2cc(=O)c3c(OC)cc(OC)c(OC)c3o2)cc1 [Compound 6, 5,7,8,4'-tetramethoxyflavone]
[1]
  Value of enhancing the sourness Ascending system: 120
  Value of enhancing the sourness Descending system: 123
[7]; 0.10 ppm in pickle solution
  Saltiness and Savor Modifying Effect: Saltiness: 3.0
  Saltiness and Savor Modifying Effect: Savor: 3.0
  Saltiness and Savor Modifying Effect: Total evaluation: 3.0
[7]; 1.00 ppm in pickle solution
  Saltiness and Savor Modifying Effect: Saltiness: 3.4
  Saltiness and Savor Modifying Effect: Savor: 3.4
  Saltiness and Savor Modifying Effect: Total evaluation: 3.4

## COc1ccc(-c2cc(=O)c3c(O)c(OC)c(OC)c(OC)c3o2)cc1 [Compound 9, 5-hydroxy-4',6,7,8-tetramethoxyflavone]
[1]
  Value of enhancing the sourness Ascending system: 117
  Value of enhancing the sourness Descending system: 119
[8]
  Continuity of refreshness: Those who sensed F additive is better: 8 number of people
  Continuity of refreshness: Those who sensed no difference: 0 number of people
  Quality of taste: Those who sensed F additive is better: 6 number of people
  Quality of taste: Those who sensed no difference: 2 number of people
  Refreshness: Those who sensed F additive is better: 7 number of people
  Refreshness: Those who sensed no difference: 1 number of people
